In patent publication US20240190865A1, “T-TYPE CALCIUM CHANNEL ANTAGONISTS AND USES THEREOF” (THE BOARD OF TRUSTEES OF THE LELAND STANFORD JUNIOR …, priority 2021, published 2024):

target: Cav3.2 (Homo sapiens (Human), UniProt O95180); assay: In vitro patch clamp assay (SyncroPatch 384PE); assay type: cell-based; conditions: HEK293 cells
Description: Patch clamp assays were performed at Charles River. HEK293 cells were cultured in Dulbecco's Modified Eagle Medium/Nutrient Mixture F-12 (D-MEM/F-12) supplemented with 10% fetal bovine serum, 100 U/mL penicillin G sodium, 100 μg/mL streptomycin sulfate and 500 μg/mL G418. Before testing, cells in culture dishes were washed twice with Hank's Balanced Salt Solution, treated with Accutase™ and re-suspended in the culture media (˜20×10^6 cells in 20 mL). Cells in suspension were allowed to recover for 10 minutes in tissue culture incubator set at 37° C. in a humidified 95% air: 5% CO2 atmosphere. Immediately before use in the SyncroPatch 384PE system (SP384PE), the cells were washed twice in extracellular buffer (HB-PS) to remove the culture medium and re-suspended in 20 mL of HB-PS. Extracellular buffer was loaded into the wells of Nanion 384-well Patch Clamp (NPC-384, 4×M) chip (60 μL per well). Then, cell suspension was pipetted into the wells (20 μL per well) of the chip. After establishment of the whole-cell configuration, membrane currents were recorded using patch clamp amplifier in the SP384PE system.

Sequence of Cav3.2 (O95180 whole entry): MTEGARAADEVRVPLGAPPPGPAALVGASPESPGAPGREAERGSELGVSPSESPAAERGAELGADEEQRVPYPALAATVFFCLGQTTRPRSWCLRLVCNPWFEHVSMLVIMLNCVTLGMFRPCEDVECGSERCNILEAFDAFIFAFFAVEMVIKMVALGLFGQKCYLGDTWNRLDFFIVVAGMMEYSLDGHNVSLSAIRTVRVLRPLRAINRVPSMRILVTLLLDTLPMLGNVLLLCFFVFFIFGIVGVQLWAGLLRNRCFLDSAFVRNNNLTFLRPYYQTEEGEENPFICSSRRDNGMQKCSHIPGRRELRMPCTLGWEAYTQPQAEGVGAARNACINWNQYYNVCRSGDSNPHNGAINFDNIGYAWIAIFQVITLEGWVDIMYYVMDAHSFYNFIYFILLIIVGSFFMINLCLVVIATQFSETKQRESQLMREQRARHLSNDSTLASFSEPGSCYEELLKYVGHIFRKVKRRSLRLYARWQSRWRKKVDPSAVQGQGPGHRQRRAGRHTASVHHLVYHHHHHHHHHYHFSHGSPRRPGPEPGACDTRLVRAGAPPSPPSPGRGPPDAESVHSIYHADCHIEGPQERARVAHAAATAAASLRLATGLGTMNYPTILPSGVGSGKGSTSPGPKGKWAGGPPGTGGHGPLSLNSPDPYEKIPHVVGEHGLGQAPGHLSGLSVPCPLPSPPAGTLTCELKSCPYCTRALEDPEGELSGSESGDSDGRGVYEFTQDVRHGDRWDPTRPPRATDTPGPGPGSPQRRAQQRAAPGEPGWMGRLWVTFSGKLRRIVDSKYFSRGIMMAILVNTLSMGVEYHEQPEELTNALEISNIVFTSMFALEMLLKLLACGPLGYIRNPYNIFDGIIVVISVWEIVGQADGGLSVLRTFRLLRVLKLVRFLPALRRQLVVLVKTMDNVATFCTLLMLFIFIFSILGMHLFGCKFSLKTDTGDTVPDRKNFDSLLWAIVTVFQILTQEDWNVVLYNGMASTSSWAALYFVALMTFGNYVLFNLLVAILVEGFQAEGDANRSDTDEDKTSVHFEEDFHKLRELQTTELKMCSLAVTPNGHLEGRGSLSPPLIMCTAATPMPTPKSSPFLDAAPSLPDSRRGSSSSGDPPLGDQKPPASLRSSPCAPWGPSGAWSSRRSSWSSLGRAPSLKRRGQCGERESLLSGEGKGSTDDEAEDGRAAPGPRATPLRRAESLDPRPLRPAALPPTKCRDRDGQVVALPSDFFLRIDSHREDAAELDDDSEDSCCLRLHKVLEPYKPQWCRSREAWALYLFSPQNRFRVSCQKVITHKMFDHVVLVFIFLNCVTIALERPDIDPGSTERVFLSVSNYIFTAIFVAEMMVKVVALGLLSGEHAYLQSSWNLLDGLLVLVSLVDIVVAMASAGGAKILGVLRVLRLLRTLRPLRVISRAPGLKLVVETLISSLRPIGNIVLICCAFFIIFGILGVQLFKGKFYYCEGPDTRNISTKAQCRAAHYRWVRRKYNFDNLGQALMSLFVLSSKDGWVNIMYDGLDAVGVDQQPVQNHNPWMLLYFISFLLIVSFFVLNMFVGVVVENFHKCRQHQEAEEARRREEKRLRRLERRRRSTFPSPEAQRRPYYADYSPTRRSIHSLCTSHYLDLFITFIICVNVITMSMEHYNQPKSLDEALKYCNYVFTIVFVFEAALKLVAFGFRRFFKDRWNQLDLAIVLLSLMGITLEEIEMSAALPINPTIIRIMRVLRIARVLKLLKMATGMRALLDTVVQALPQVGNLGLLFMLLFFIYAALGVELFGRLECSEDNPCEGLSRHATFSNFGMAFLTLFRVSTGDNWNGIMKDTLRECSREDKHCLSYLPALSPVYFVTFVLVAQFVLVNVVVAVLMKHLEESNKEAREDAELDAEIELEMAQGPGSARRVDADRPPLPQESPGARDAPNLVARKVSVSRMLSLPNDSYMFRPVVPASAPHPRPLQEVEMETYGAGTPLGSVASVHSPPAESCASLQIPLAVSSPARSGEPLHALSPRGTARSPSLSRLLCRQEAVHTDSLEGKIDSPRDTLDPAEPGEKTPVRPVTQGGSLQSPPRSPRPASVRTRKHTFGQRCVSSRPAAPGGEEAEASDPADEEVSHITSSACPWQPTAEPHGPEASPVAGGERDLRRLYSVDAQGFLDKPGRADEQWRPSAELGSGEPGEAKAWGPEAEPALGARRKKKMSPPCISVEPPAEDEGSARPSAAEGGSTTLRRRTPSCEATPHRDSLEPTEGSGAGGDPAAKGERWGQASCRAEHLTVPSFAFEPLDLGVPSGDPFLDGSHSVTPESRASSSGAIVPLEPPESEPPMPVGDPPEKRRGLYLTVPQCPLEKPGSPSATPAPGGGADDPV

Row | Compound | IC50 [nM]
1 | CC(C)c1ccc(CC(=O)N[C@H](C)c2cc3cnn(C)c3nn2)cc1 [Example 13, (R)-2-(4-isopropylphenyl)-N-(1-(1-methyl-1H-pyrazolo[3,4-c]pyridazin-5-yl)ethyl)acetamide] | 710
2 | C[C@@H](NC(=O)Cc1ccc(C2(C(F)(F)F)CC2)nc1)c1ncc(Cl)s1 [Example 58, (R)—N-(1-(5-chlorothiazol-2-yl)ethyl)-2-(6-(1-(trifluoromethyl)cyclopropyl)pyridin-3-yl)acetamide] | 4900
3 | Cc1nn(CC(F)(F)F)c2cnc([C@@H](C)NC(=O)Cc3ccc(C(C)C)cc3)cc12 [Example 32, (R)-2-(4-isopropylphenyl)-N-(1-(3-methyl-1-(2,2,2-trifluoroethyl)-1H-pyrazolo[3,4-c]pyridin-5-yl)ethyl)acetamide] | 9420
4 | C[C@@H](NC(=O)Cc1ccc(C2CC2)nc1)c1cc2cnn(CC(F)(F)F)c2cn1 [Example 25, (R)-2-(6-cyclopropylpyridin-3-yl)-N-(1-(1-(2,2,2-trifluoroethyl)-1H-pyrazolo[3,4-c]pyridin-5-yl)ethyl)acetamide] | 2590
5 | C[C@@H](NC(=O)Cc1ccc(C2CC2)cc1)c1cc2cnn(CC(F)(F)F)c2cn1 [Example 28, (R)-2-(4-cyclopropylphenyl)-N-(1-(1-(2,2,2-trifluoroethyl)-1H-pyrazolo[3,4-c]pyridin-5-yl)ethyl)acetamide] | 89
6 | Cc1nn(C)c2ccc(CC(=O)N[C@H](C)c3cc4cnn(CC(F)(F)F)c4cn3)cc12 [Example 49, (R)-2-(1,3-dimethyl-1H-indazol-5-yl)-N-(1-(1-(2,2,2-trifluoroethyl)-1H-pyrazolo[3,4-c]pyridin-5-yl)ethyl)acetamide] | 352
7 | CC(C)c1ccc(CC(=O)N[C@H](C)c2cc3cnn(CC(F)(F)F)c3cn2)cn1 [Example 20, (R)-2-(6-isopropylpyridin-3-yl)-N-(1-(1-(2,2,2-trifluoroethyl)-1H-pyrazolo[3,4-c]pyridin-5-yl)ethyl)acetamide] | 1050
8 | C[C@@H](NC(=O)Cc1ccc(C2(C(F)F)CC2)nc1)c1cc2cnn(CC(F)(F)F)c2cn1 [Example 21, (R)-2-(6-(1-(difluoromethyl)cyclopropyl)pyridin-3-yl)-N-(1-(1-(2,2,2-trifluoroethyl)-1H-pyrazolo[3,4-c]pyridin-5-yl)ethyl)acetamide] | 637
9 | C[C@@H](NC(=O)Cc1ccc(C2(F)CC2)cc1)c1cc2cnn(CC(F)(F)F)c2cn1 [Example 29, (R)-2-(4-(1-fluorocyclopropyl)phenyl)-N-(1-(1-(2,2,2-trifluoroethyl)-1H-pyrazolo[3,4-c]pyridin-5-yl)ethyl)acetamide] | 533
10 | CCn1ncc2cc([C@@H](C)NC(=O)Cc3ccc(C(C)C)cc3)ncc21 [Example 8, (R)—N-(1-(1-ethyl-1H-pyrazolo[3,4-c]pyridin-5-yl)ethyl)-2-(4-isopropylphenyl)acetamide] | 126
11 | C[C@@H](NC(=O)Cc1ccc(C(C)(F)F)nc1)c1cc2cnn(CC(F)(F)F)c2cn1 [Example 16, (R)-2-(6-(1,1-difluoroethyl)pyridin-3-yl)-N-(1-(1-(2,2,2-trifluoroethyl)-1H-pyrazolo[3,4-c]pyridin-5-yl)ethyl)acetamide] | 1270
12 | C[C@@H](NC(=O)Cc1ccc(C(C)(F)F)c(C#N)c1)c1cc2cnn(CC(F)(F)F)c2cn1 [Example 52, (R)-2-(3-cyano-4-(1,1-difluoroethyl)phenyl)-N-(1-(1-(2,2,2-trifluoroethyl)-1H-pyrazolo[3,4-c]pyridin-5-yl)ethyl)acetamide] | 389
13 | C[C@@H](NC(=O)Cc1ccc(C(C)(F)F)cc1)c1cc2cnn(CC(F)(F)F)c2cn1 [Example 19, (R)-2-(4-(1,1-difluoroethyl)phenyl)-N-(1-(1-(2,2,2-trifluoroethyl)-1H-Pyrazolo[3,4-c]pyridin-5-yl)ethyl)acetamide] | 132
14 | C[C@@H](NC(=O)Cc1ccc(C(C)(F)F)cc1)c1cc2cnn(CC(C)(F)F)c2cn1 [Example 41, (R)-2-(4-(1,1-difluoroethyl)phenyl)-N-(1-(1-(2,2-difluoropropyl)-1H-pyrazolo[3,4-c]pyridin-5-yl)ethyl)acetamide] | 727
15 | C[C@@H](NC(=O)Cc1cnc(C2CC2)c(Cl)c1)c1cc2cnn(CC(F)(F)F)c2cn1 [Example 36, (R)-2-(5-chloro-6-cyclopropylpyridin-3-yl)-N-(1-(1-(2,2,2-trifluoroethyl)-1H-pyrazolo[3,4-c]pyridin-5-yl)ethyl)acetamide] | 873
16 | C[C@@H](NC(=O)Cc1ccc(C2CC2(F)F)cc1)c1cc2cnn(CC(F)(F)F)c2cn1 (single isomer, unassigned) [Example 30] | 475

Row | Compound | IC50 [nM]
17 | CC(C)c1ccc(CC(=O)N[C@H](C)c2cc3cnn(CC4(F)CC4)c3cn2)cc1 [Example 18, (R)—N-(1-(1-((1-fluorocyclopropyl)methyl)-1H-pyrazolo[3,4-c]pyridin-5-yl)ethyl)-2-(4-isopropylphenyl)acetamide] | 343
18 | C[C@@H](NC(=O)Cc1cnc(C2CC2)c(F)c1)c1cc2cnn(CC(F)(F)F)c2cn1 [Example 39, (R)-2-(6-cyclopropyl-5-fluoropyridin-3-yl)-N-(1-(1-(2,2,2-trifluoroethyl)-1H-pyrazolo[3,4-c]pyridin-5-yl)ethyl)acetamide] | 519
19 | C[C@@H](NC(=O)Cc1ccc2c(c1)OC(F)(F)O2)c1cc2cnn(CC(F)(F)F)c2cn1 [Example 48, (R)-2-(2,2-difluorobenzo[d][1,3]dioxol-5-yl)-N-(1-(1-(2,2,2-trifluoroethyl)-1H-pyrazolo[3,4-c]pyridin-5-yl)ethyl)acetamide] | 260
20 | C[C@@H](NC(=O)Cc1ccc(C(F)(F)F)c(F)c1)c1cc2cnn(CC(F)(F)F)c2cn1 [Example 42, (R)-2-(3-fluoro-4-(trifluoromethyl)phenyl)-N-(1-(1-(2,2,2-trifluoroethyl)-1H-pyrazolo[3,4-c]pyridin-5-yl)ethyl)acetamide] | 394
21 | C[C@@H](NC(=O)Cc1ccc(C2(C(F)F)CC2)cc1)c1cc2cnn(CC(F)(F)F)c2cn1 [Example 22, (R)-2-(4-(1-(difluoromethyl)cyclopropyl)phenyl)-N-(1-(1-(2,2,2-trifluoroethyl)-1H-pyrazolo[3,4-c]pyridin-5-yl)ethyl)acetamide] | 194
22 | CCCn1ncc2cc([C@@H](C)NC(=O)Cc3ccc(C(C)C)cc3)ncc21 [Example 7, (R)-2-(4-isopropylphenyl)-N-(1-(1-propyl-1H-pyrazolo[3,4-c]pyridin-5-yl)ethyl)acetamide] | 110
23 | C[C@@H](NC(=O)Cc1ccc(C(F)(F)F)c(Cl)c1)c1cc2cnn(CC(F)(F)F)c2cn1 [Example 43, (R)-2-(3-chloro-4-(trifluoromethyl)phenyl)-N-(1-(1-(2,2,2-trifluoroethyl)-1H-pyrazolo[3,4-c]pyridin-5-yl)ethyl)acetamide] | 214
24 | C[C@@H](NC(=O)Cc1ccc(C2CC2)cn1)c1cc2cnn(CC(F)(F)F)c2cn1 [Example 34, (R)-2-(5-cyclopropylpyridin-2-yl)-N-(1-(1-(2,2,2-trifluoroethyl)-1H-pyrazolo[3,4-c]pyridin-5-yl)ethyl)acetamide] | > 10000
25 | CC(C)c1ccc(CC(=O)N[C@H](C)c2cc3cnn(CC(F)(F)F)c3cn2)cc1 [Example 9, (R)-2-(4-isopropylphenyl)-N-(1-(1-(2,2,2-trifluoroethyl)-1H-pyrazolo[3,4-c]pyridin-5-yl)ethyl)acetamide] | 44
26 | C[C@@H](NC(=O)Cc1ccc(C(C)(F)F)c(F)c1)c1cc2cnn(CC(F)(F)F)c2cn1 [Example 38, (R)-2-(4-(1,1-difluoroethyl)-3-fluorophenyl)-N-(1-(1-(2,2,2-trifluoroethyl)-1H-pyrazolo[3,4-c]pyridin-5-yl)ethyl)acetamide] | 123
27 | C[C@@H](NC(=O)Cc1ccc(C2CC2(F)F)cc1)c1cc2cnn(CC(F)(F)F)c2cn1 (single isomer, unassigned) [Example 31] | 505
28 | CC(C)c1ccc(CC(=O)N[C@H](C)c2cc3nn(C)cc3cn2)cc1 [Example 4, (R)-2-(4-isopropylphenyl)-N-(1-(2-methyl-2H-pyrazolo[4,3-c]pyridin-6-yl)ethyl)acetamide] | > 10000
29 | CCCn1cc2cc([C@@H](C)NC(=O)Cc3ccc(C(C)C)cc3)ncc2n1 [Example 11, (R)-2-(4-isopropylphenyl)-N-(1-(2-propyl-2H-pyrazolo[3,4-c]pyridin-5-yl)ethyl)acetamide] | 2420
30 | Cc1c2ccc(CC(=O)N[C@H](C)c3cc4cnn(CC(F)(F)F)c4cn3)cc2nn1C [Example 46, (R)-2-(2,3-dimethyl-2H-indazol-6-yl)-N-(1-(1-(2,2,2-trifluoroethyl)-1H-pyrazolo[3,4-c]pyridin-5-yl)ethyl)acetamide] | 806
31 | C[C@@H](NC(=O)Cc1ccc(C2(C(F)(F)F)CC2)cc1)c1cnc2c(cnn2C)c1 [Example 10, (R)—N-(1-(1-methyl-1H-pyrazolo[3,4-b]pyridin-5-yl)ethyl)-2-(4-(1-(trifluoromethyl)cyclopropyl)phenyl)acetamide] | > 10000
32 | C[C@@H](NC(=O)Cc1ccc(C2CC2)nc1)c1cc2cnn(-c3ccc(F)cc3)c2cn1 [Example 23, (R)-2-(6-cyclopropylnyridin-3-yl)-N-(1-(1-(4-fluorophenyl)-1H-pyrazolo[3,4-c]pyridin-5-yl)ethyl)acetamide] | 4020
